From patent publication US12077503B2, “Substituted cyclic amides and their use as herbicides” (FMC CORPORATION, priority 2015, dated 2024)

Experiments:
Experiment in all cases: Test E preemergence
Assay type in all cases: in vivo
Settings in all cases: scale 0 to 100
Kochia (Kochia scoparia) = system: Kochia (Kochia scoparia)
Source text: (§1) Seeds of plant species selected from corn (Zea mays), soybean (Glycine max), velvetleaf (Abutilon theophrasti), lambsquarters (Chenopodium album), poinsettia, wild (wild poinsettia, Euphorbia heterophylla), pigweed, palmer (palmer pigweed, Amaranthus palmeri), waterhemp (common waterhemp, Amaranthus rudis), surinam grass (Brachiaria decumbens), crabgrass, large (large crabgrass, Digitaria sangumnalis), crabgrass, Brazil (Brazilian crabgrass, Digitaria horizontalis), Panicum, fall (fall Panicum, Panicum dichotomiflorum), foxtail, giant (giant foxtail, Setaria faberii), foxtail, green (green foxtail, Setaria viridis), goosegrass (Eleusine indica), johnsongrass (Sorghum halepense), ragweed (common ragweed, Ambrosia elatior), barnyardgrass (Echinochloa crus-galli), sandbur (southern sandbur, Cenchrus echinatus), arrowleaf Sida (Sida rhombifolia), ryegrass, Italian (Italian ryegrass, Lolium multiflorum), dayflower, VA (Virginia dayflower, Commelina virginica), field bindweed (Convolvulus arvensis), morningglory (Ipomoea coccinea), nightshade (eastern black nightshade, Solanum ptycanthum), Kochia (Kochia scoparia), nutsedge, yellow (yellow nutsedge, Cyperus esculentus), horseweed (Conyza canadensis), and beggarticks (hairy beggarticks, Bidens pilosa), were planted into a silt loam soil and treated preemergence with test chemicals formulated in a non-phytotoxic solvent mixture which included a surfactant.
(§2) At the same time, plants selected from these crop and weed species were planted in pots containing Sunshine Redi-Earth planting medium comprising spaghnum peat moss, vermiculite, starter nutrients and dolomitic limestone and treated with postemergence applications of a test chemical formulated in the same manner. Plants ranged in height from 2 to 18 cm (1- to 4-leaf stage) for postemergence treatments. Treated plants and controls were maintained in a greenhouse for 14 to 21 d, after which time all species were compared to controls and visually evaluated. Plant response ratings, summarized in Table E, are based on a scale of 0 to 100 where 0 is no effect and 100 is complete control. A dash (-) response means no test result.

[1] = system: horseweed (Conyza canadensis)
Source text: as §1, §2

[2] = system: barnyardgrass (Echinochloa crus-galli)
Source text: as §1, §2

[3] = system: sandbur (southern sandbur, Cenchrus echinatus)
Source text: as §1, §2

[4] = system: beggarticks (hairy beggarticks, Bidens pilosa)
Source text: as §1, §2

[5] = system: foxtail, green (green foxtail, Setaria viridis)
Source text: as §1, §2

[6] = system: nightshade (eastern black nightshade, Solanum ptycanthum)
Source text: as §1, §2

[7] = system: goosegrass (Eleusine indica)
Source text: as §1, §2

[8] = system: nutsedge, yellow (yellow nutsedge, Cyperus esculentus)
Source text: as §1, §2

soybean (Glycine max) = system: soybean (Glycine max)
Source text: as §1, §2

[9] = system: crabgrass, large (large crabgrass, Digitaria sangumnalis)
Source text: as §1, §2

[10] = system: velvetleaf (Abutilon theophrasti)
Source text: as §1, §2

[11] = system: waterhemp (common waterhemp, Amaranthus rudis)
Source text: as §1, §2

[12] = system: surinam grass (Brachiaria decumbens)
Source text: as §1, §2

[13] = system: ryegrass, Italian (Italian ryegrass, Lolium multiflorum)
Source text: as §1, §2

[14] = system: field bindweed (Convolvulus arvensis)
Source text: as §1, §2

[15] = system: foxtail, giant (giant foxtail, Setaria faberii)
Source text: as §1, §2

[16] = system: Panicum, fall (fall Panicum, Panicum dichotomiflorum)
Source text: as §1, §2

[17] = system: arrowleaf Sida (Sida rhombifolia)
Source text: as §1, §2

[18] = system: crabgrass, Brazil (Brazilian crabgrass, Digitaria horizontalis)
Source text: as §1, §2

corn (Zea mays) = system: corn (Zea mays)
Source text: as §1, §2

## CN1CC(c2cccc(C(F)(F)F)c2)C(C(=O)Nc2cccc(F)c2F)C1=O (stereo not drawn) [Compound 636]
Kochia (Kochia scoparia); 31 g ai/ha
  Plant response rating: Kochia: 85
Kochia (Kochia scoparia); 62 g ai/ha
  Plant response rating: Kochia: 90
Kochia (Kochia scoparia); 125 g ai/ha
  Plant response rating: Kochia: 90
Kochia (Kochia scoparia); 250 g ai/ha
  Plant response rating: Kochia: 95
[1]; 31 g ai/ha
  Plant response rating: Horseweed: 0
[1]; 62 g ai/ha
  Plant response rating: Horseweed: 90
[1]; 125 g ai/ha
  Plant response rating: Horseweed: 95
[1]; 250 g ai/ha
  Plant response rating: Horseweed: 95
[2]; 31 g ai/ha
  Plant response rating: Barnyardgrass: 95
[2]; 62 g ai/ha
  Plant response rating: Barnyardgrass: 95
[2]; 125 g ai/ha
  Plant response rating: Barnyardgrass: 98
[2]; 250 g ai/ha
  Plant response rating: Barnyardgrass: 98
[3]; 31 g ai/ha
  Plant response rating: Sandbur: 90
[3]; 62 g ai/ha
  Plant response rating: Sandbur: 90
[3]; 125 g ai/ha
  Plant response rating: Sandbur: 90
[3]; 250 g ai/ha
  Plant response rating: Sandbur: 95
[4]; 31 g ai/ha
  Plant response rating: Beggarticks: 0
[4]; 62 g ai/ha
  Plant response rating: Beggarticks: 0
[4]; 125 g ai/ha
  Plant response rating: Beggarticks: 0
[4]; 250 g ai/ha
  Plant response rating: Beggarticks: 0
[5]; 31 g ai/ha
  Plant response rating: Foxtail, Green: 95
[5]; 62 g ai/ha
  Plant response rating: Foxtail, Green: 95
[5]; 125 g ai/ha
  Plant response rating: Foxtail, Green: 95
[5]; 250 g ai/ha
  Plant response rating: Foxtail, Green: 98
[6]; 31 g ai/ha
  Plant response rating: Nightshade: 0
[6]; 62 g ai/ha
  Plant response rating: Nightshade: 0
[6]; 125 g ai/ha
  Plant response rating: Nightshade: 40
[6]; 250 g ai/ha
  Plant response rating: Nightshade: 50
[7]; 31 g ai/ha
  Plant response rating: Goosegrass: 50
[7]; 62 g ai/ha
  Plant response rating: Goosegrass: 80
[7]; 125 g ai/ha
  Plant response rating: Goosegrass: 90
[7]; 250 g ai/ha
  Plant response rating: Goosegrass: 95
[8]; 31 g ai/ha
  Plant response rating: Nutsedge, Yellow: 0
[8]; 62 g ai/ha
  Plant response rating: Nutsedge, Yellow: 0
[8]; 125 g ai/ha
  Plant response rating: Nutsedge, Yellow: 0
[8]; 250 g ai/ha
  Plant response rating: Nutsedge, Yellow: 60
Soybean (Glycine max); 31 g ai/ha
  Plant response rating: Soybean: 0
Soybean (Glycine max); 62 g ai/ha
  Plant response rating: Soybean: 0
Soybean (Glycine max); 125 g ai/ha
  Plant response rating: Soybean: 0
Soybean (Glycine max); 250 g ai/ha
  Plant response rating: Soybean: 0
[9]; 31 g ai/ha
  Plant response rating: Crabgrass, Large: 98
[9]; 62 g ai/ha
  Plant response rating: Crabgrass, Large: 98
[9]; 125 g ai/ha
  Plant response rating: Crabgrass, Large: 98
[9]; 250 g ai/ha
  Plant response rating: Crabgrass, Large: 98
[10]; 31 g ai/ha
  Plant response rating: Velvetleaf: 20
[10]; 62 g ai/ha
  Plant response rating: Velvetleaf: 35
[10]; 125 g ai/ha
  Plant response rating: Velvetleaf: 60
[10]; 250 g ai/ha
  Plant response rating: Velvetleaf: 40
[11]; 31 g ai/ha
  Plant response rating: Waterhemp: 25
[11]; 62 g ai/ha
  Plant response rating: Waterhemp: 80
[11]; 125 g ai/ha
  Plant response rating: Waterhemp: 70
[11]; 250 g ai/ha
  Plant response rating: Waterhemp: 80
[12]; 31 g ai/ha
  Plant response rating: Surinam Grass: 40
[12]; 62 g ai/ha
  Plant response rating: Surinam Grass: 90
[12]; 125 g ai/ha
  Plant response rating: Surinam Grass: 95
[12]; 250 g ai/ha
  Plant response rating: Surinam Grass: 95
[13]; 31 g ai/ha
  Plant response rating: Ryegrass, Italian: 40
[13]; 62 g ai/ha
  Plant response rating: Ryegrass, Italian: 65
[13]; 125 g ai/ha
  Plant response rating: Ryegrass, Italian: 95
[13]; 250 g ai/ha
  Plant response rating: Ryegrass, Italian: 95
[14]; 31 g ai/ha
  Plant response rating: Field Bindweed: 0
[14]; 62 g ai/ha
  Plant response rating: Field Bindweed: 75
[14]; 125 g ai/ha
  Plant response rating: Field Bindweed: 80
[14]; 250 g ai/ha
  Plant response rating: Field Bindweed: 70
[15]; 31 g ai/ha
  Plant response rating: Foxtail, Giant: 95
[15]; 62 g ai/ha
  Plant response rating: Foxtail, Giant: 95
[15]; 125 g ai/ha
  Plant response rating: Foxtail, Giant: 95
[15]; 250 g ai/ha
  Plant response rating: Foxtail, Giant: 95
[16]; 31 g ai/ha
  Plant response rating: Panicum, Fall: 90
[16]; 62 g ai/ha
  Plant response rating: Panicum, Fall: 90
[16]; 125 g ai/ha
  Plant response rating: Panicum, Fall: 100
[16]; 250 g ai/ha
  Plant response rating: Panicum, Fall: 90
[17]; 31 g ai/ha
  Plant response rating: Arrowleaf Sida: 35
[17]; 62 g ai/ha
  Plant response rating: Arrowleaf Sida: 65
[17]; 125 g ai/ha
  Plant response rating: Arrowleaf Sida: 80
[17]; 250 g ai/ha
  Plant response rating: Arrowleaf Sida: 90
[18]; 31 g ai/ha
  Plant response rating: Crabgrass, Brazil: 95
[18]; 62 g ai/ha
  Plant response rating: Crabgrass, Brazil: 95
[18]; 125 g ai/ha
  Plant response rating: Crabgrass, Brazil: 98
[18]; 250 g ai/ha
  Plant response rating: Crabgrass, Brazil: 98
Corn (Zea mays); 31 g ai/ha
  Plant response rating: Corn: 65
Corn (Zea mays); 62 g ai/ha
  Plant response rating: Corn: 70
Corn (Zea mays); 125 g ai/ha
  Plant response rating: Corn: 80
Corn (Zea mays); 250 g ai/ha
  Plant response rating: Corn: 80
